Molecules are shown by their SMILES. In brackets after ≈: the same amount, converted by molar mass. Activity calls are given as the source filed them.

For data set [1], the system named is Staphylococcus aureus. Put plainly: Antibacterial activity against Staphylococcus aureus ATCC 25923 incubated for 24 hrs by CLSI based broth microdilution assay. Type of data set: functional. On the technique in general: Broth dilution looks for growth in wells or tubes with falling amounts of substance.
The test system of data set [2] is Staphylococcus aureus. Put plainly: Antibacterial activity against TMP-resistant Staphylococcus aureus BHKS 723 incubated for 24 hrs by CLSI based broth microdilution assay. Format: functional.
A short description of data set [3]: Cytotoxicity against HEK293 cells assessed as inhibition rate of cell growth at 100 uM incubated for 24 hrs by CCK8 assay relative to control. The settings on record: human. Type of data set: toxicity, cell-based. A general note: Tetrazolium dyes change colour on reduction, which living cells bring about.
Data set [4] can be described thus: Cytotoxicity against human NCM460 cells assessed as inhibition rate of cell growth at 100 uM incubated for 24 hrs by CCK8 assay relative to control. Format: toxicity, cell-based.
Data set [5] in a line: Acute toxicity in C57 mouse assessed as animal death at 800 mg/kg, po measured after 1 week. Format: organism-based. The settings on record: in vivo, 168 h, time 1 weeks.
A short description of data set [6]: Tmax in Sprague-Dawley rat at 5 mg/kg, iv measured for 24 hrs by LC/MS analysis. The settings on record: in vivo. Format: ADME, organism-based.
Data set [7] is described as follows: Clearance in Sprague-Dawley rat at 5 mg/kg, iv measured for 24 hrs by LC/MS analysis. Format: ADME, organism-based. As to conditions: in vivo.
Data set [8] in a line: AUC (0 to t) in Sprague-Dawley rat at 15 mg/kg, po measured for 24 hrs by LC/MS analysis. Format: ADME, organism-based. As to conditions: in vivo.
Data set [9] deals with Staphylococcus aureus. Put plainly: Antibacterial activity against methicillin-resistant Staphylococcus aureus ATCC 33591 infected in C57 mouse model assessed as body weight recovery at 2 to 10 mg/kg administered once a day for 3 days consecutively and measured after 24 hrs post-last dose. Type of data set: functional, organism-based. The settings on record: dose 2-10 mg/kg, time 4.0 day.

For data set [10], the system named is Staphylococcus aureus. Put plainly: Antibacterial activity against methicillin-resistant Staphylococcus aureus ATCC 33591 infected in C57 mouse model assessed as reduction in bacterial count at 2 to 10 mg/kg administered once a day for 3 days consecutively and measured after 24 hrs post-last dose by colony counting method. Type of data set: functional, organism-based. The settings on record: dose 2-10 mg/kg, time 4.0 day.

In data set [11] the test system is Mus musculus. Put plainly: Induction of inflammatory cell infiltration in C57 mouse model infected with methicillin-resistant Staphylococcus aureus ATCC 33591 at 2 to 10 mg/kg administered once a day for 3 days consecutively and measured after 24 hrs post-last dose by H and E staining based analysis. Type of data set: functional, organism-based. As to conditions: dose 2-10 mg/kg, time 4.0 day.

Usually MIC stands for the smallest concentration in the dilution series that meets the test's criterion for growth inhibition. Low readings indicate a more susceptible organism, high ones a less susceptible organism. For orientation: inhibition means the percentage by which the read-out fell short of the control. For orientation: Tmax means the time at which the peak concentration occurs. A word on the clearance: it is the volume of plasma or blood freed of the substance per unit of time. A low value points to a low capacity for elimination. Broadly, the AUC(0-t) is exposure summed from dosing to a finite time, without extrapolation to infinity. A lower AUC(0-t) goes with less exposure. Take `CC(C)c1cc(OCC2CC2)c(I)cc1Oc1cnc(N)nc1N`: the MIC is 0.031 µg/mL (≈ 0.0704 µM) in [1] and 2 µg/mL (≈ 4.54 µM) in [2]. The inhibition at 24 h, 100 µM in [3] turned out to be 59.1%; in data set [4] it was 20.2%. In data set [5], the Activity entry is recorded as “Non-Toxic”. For the same compound, the Tmax in data set [6] worked out at 4.8 min. The compound further gave a clearance in data set [7] of 25 mL/min/kg. For the same compound, the AUC(0-t) at 24 h in data set [8] amounted to 3920 ng·h/mL. Further, the outcome in data set [9], in data set [10] and in data set [11] was Active.

Values taken from ChEMBL document CHEMBL5528082 (J Med Chem, 2024).
